In patent US20180098959A1, “METHODS FOR TREATING CANCER” (BOSTON BIOMEDICAL, INC., priority 2015, published 2018):
Like-named read-outs stand apart in the source and are kept apart here.

What was measured:
FaDu cancer stem cells = experiment: stemness gene expression versus chemo- and targeted therapeutics; format: cell-based; settings: 24 hours, 2-acetylnaphtho[2,3-b]furan-4,9-dione 2 mM, sunitinib 20 mM, gemcitabine 2 mM, carboplatin 32 mM, FIGS. 4(A)-(D)
Method: FIGS. 4(A)-(D) depict FaDu cancer stem cells that were treated for 24 hours with DMSO and: (i) 2-acetylnaphtho[2,3-b]furan-4,9-dione (2 mM) (FIG. 4(A)), (ii) sunitinib (20 mM) (FIG. 4(B)), (iii) gemcitabine (2 mM) (FIG. 4(C)), or (iv) carboplatin (32 mM) (FIG. 4(D)).

p-Stat3 and β-catenin = experiment: cancer stem cell markers in cancer xenograft models (immunofluorescence); format: in vivo, athymic nude mice; settings: cancer xenograft tumor model, tumors harvested after first dosing; FIG. 6
Method: The effects of 2-acetylnaphtho[2,3-b]furan-4,9-dione on cancer stem cell markers was also examined in cancer xenograft models with and without irinotecan. Human cancer cells were subcutaneously implanted into the right flank of 5-7 weeks old female athymic nude mice. When tumor size reached 200 mm^3, animals were treated with 2-acetylnaphtho[2,3-b]furan-4,9-dione, irinotecan, or a combination of 2-acetylnaphtho[2,3-b]furan-4,9-dione and irinotecan. Tumors were harvested after first dosing.
The harvested tissues were fixed in 3.7% neutral buffered formaldehyde at 4° C. for overnight. The paraffin was embedded, cut to about 5 microns, and affixed onto positively charged slides. After being baked and de-paraffinized, the slides with tumor or control tissues were incubated in 10 mM Sodium Citrate (pH 6.0) for 10 minutes. After antigen retrieval, slides were probed with primary antibodies P-STAT3 (rabbit, Cell Signaling, 1:100), 13-Catenine (mouse, Santa Cruz, 1:400) at 4° C. overnight, and then Alexa Fluor fluorescent dyes-conjugated secondary antibodies (1:500, Invitrogen). After mounting with ProLong mounting medium with DAPI (Invitrogen), the slides were examined under a Zeiss fluorescence microscope with 20× objective, and analyzed with Zen software.

mCRC = settings: Single Agent, panitumumab value for K-Ras WT, cited from earlier work

Row | Molecule | expression of self-renewal / CSC genes (β-Catenin, Nanog, Smo, Sox2) (FaDu cancer stem cells) | staining for stem cell markers (p-Stat3 and β-catenin) (p-Stat3 and β-catenin) | Historical DCR (in Evaluable patients with mCRC) (mCRC) | Historical DCR (in Evaluable patients with mCRC) (mCRC; listed as panitumumab)
1 | Nc1ccn([C@@H]2O[C@H](CO)[C@@H](O)C2(F)F)c(=O)n1 [gemcitabine] | increased CSC gene expression in certain cases |  |  | 
2 | CCc1c2c(nc3ccc(OC(=O)N4CCC(N5CCCCC5)CC4)cc13)-c1cc3c(c(=O)n1C2)COC(=O)[C@]3(O)CC [irinotecan, reference compound] | increased CSC gene expression in certain cases | enhanced staining |  | 
3 | O=C1[O][Pt]2([NH][C@@H]3CCCC[C@H]3[NH]2)[O]C1=O [oxaliplatin] | increased CSC gene expression in certain cases |  |  | 
4 | CNC(=O)c1cc(Oc2ccc(NC(=O)Nc3ccc(Cl)c(C(F)(F)F)c3)c(F)c2)ccn1 [regorafenib] | increased CSC gene expression in certain cases |  |  | 
5 | panitumumab |  |  | 30-40% (K-Ras WT) | 30-40%
